Results: patent US20250002471A1 (Gilead Sciences, Inc., priority 2020, published 2025)

Target: cloned hERG potassium channel encoded by the KCNH2 gene (Homo sapiens, UniProt Q12809)
Assay: hERG FASTPatch assay (QPatch patch clamp, HEK293T cells)
Type: cell-based
Settings: HEK293T cells, 1, 3, 10 and 30 uM, room temperature; Table 27
Description: The FASTPatch® Assay (Charles River) was used to examine the in vitro effects of the compounds provided herein on the cloned hERG potassium channel encoded by the KCNH2 gene and stably expressed in HEK293T cells. Vehicle, test and control article formulations were prepared by diluting DMSO stock solutions in HB-PS (HEPES-buffered physiological saline solution) and were delivered to cells via the QPatch robot pipetting system to a final concentration of 0.3% DMSO. Test compound final concentrations of 1, 3, 10 and 30 uM were applied to cells (n >3, where n=the number of cells/concentration) in ascending order in at least three minute intervals separated by solution exchange. The positive control, 50 nM cisparide, was applied in the same manner. Cell membrane currents were recorded at room temperature with up to 48 parallel patch clamp amplifiers in the QPatch HT® or QPatch HTX® system, and only cells with validated whole-cell recordings (seal resistance >200 MQ and leak current <25% channel current) were used. Onset and block of hERG current was measured using a stimulus voltage pattern consisting of a 500 ms prepulse to −40 mV, a 2-second activating pulse to +40 mV, followed by a 2-second test pulse to −40 mV. The pulse pattern was repeated continuously at 10-second intervals from a holding potential of −80 mV. % Block={1-1/[1+([Test]/IC50)^N]}*100% Where [Test] is the concentration of test article, IC50 is the concentration of the test article producing half-maximal inhibition, N is the Hill coefficient and % Block is the percentage of current inhibited at each concentration of the test article. Nonlinear least squares fits will be solved with the Solver add-in for Excel 2000 or later (Microsoft, Redmon, WA). TurboSol analysis for test compound solubility was performed for each concentration tested using a Nephelostar reader measuring light scatter from a 635 nm laser source. Based on validation experiments, light scatter above four times the background level was considered an indication of the presence of particles in suspension.

Chain of cloned hERG potassium channel encoded by the KCNH2 gene (Q12809 whole entry): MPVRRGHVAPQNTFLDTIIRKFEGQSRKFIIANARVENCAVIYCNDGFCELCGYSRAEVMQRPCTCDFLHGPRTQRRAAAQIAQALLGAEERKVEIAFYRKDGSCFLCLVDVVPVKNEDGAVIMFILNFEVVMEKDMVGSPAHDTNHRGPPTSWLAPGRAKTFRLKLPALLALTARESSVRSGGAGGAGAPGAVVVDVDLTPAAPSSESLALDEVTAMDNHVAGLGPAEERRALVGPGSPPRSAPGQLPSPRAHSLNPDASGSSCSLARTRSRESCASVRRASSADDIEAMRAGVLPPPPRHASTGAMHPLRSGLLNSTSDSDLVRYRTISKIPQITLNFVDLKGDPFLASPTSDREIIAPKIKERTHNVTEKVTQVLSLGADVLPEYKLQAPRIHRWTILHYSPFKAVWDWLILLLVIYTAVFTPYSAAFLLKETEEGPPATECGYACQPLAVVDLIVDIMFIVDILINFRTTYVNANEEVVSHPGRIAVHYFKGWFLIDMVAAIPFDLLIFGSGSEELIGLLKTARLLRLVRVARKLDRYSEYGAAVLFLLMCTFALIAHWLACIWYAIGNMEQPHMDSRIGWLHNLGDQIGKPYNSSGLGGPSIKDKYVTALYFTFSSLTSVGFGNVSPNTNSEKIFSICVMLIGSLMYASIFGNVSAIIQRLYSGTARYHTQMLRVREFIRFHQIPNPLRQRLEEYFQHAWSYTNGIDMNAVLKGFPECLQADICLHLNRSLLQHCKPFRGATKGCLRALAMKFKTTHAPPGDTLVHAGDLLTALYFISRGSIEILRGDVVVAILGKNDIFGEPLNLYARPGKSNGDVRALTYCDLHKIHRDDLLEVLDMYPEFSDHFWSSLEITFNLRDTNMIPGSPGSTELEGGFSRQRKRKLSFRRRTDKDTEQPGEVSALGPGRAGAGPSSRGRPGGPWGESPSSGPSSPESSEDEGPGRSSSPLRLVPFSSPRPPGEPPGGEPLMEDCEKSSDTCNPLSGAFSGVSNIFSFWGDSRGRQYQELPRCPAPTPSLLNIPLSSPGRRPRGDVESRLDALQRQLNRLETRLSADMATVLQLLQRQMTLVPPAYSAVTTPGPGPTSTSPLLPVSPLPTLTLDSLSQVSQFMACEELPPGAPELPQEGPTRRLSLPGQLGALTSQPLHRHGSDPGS

Row | SMILES | IC50 [µM]
1 | Cc1cc(-c2[nH]c3cc(C4CCCNC4)ccc3c2C)cc(C)n1 (centres unmarked) [Example 53] | 19.6
2 | Cc1cc(-c2[nH]c3cc(-c4ccc(N5CCNCC5)nc4)ccc3c2C)cc(C)n1 [Example 1, 2-(2,6-dimethylpyridin-4-yl)-3-methyl-6-(6-(piperazin-1-yl)pyridin-3-yl)-1H-indole] | ≥ 30
